Test results reported in US20230102554A1 (GB002, INC., priority 2019, published 2023).

Legend:
[1] = target: T1, Human PDGFRβ, cytoplasmic domain (GST-PDGFRβ) (Homo sapiens, UniProt P09619); assay: Human PDGFRβ biochemical inhibition assay (off-chip Mobility Shift Assay)
T1 construct: made in house
Procedure, shortened: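 GST-tagged cytoplasmic domain (aa 557-1106) from baculovirus was incubated 1 h at room temperature with compound, CSKtide, ATP at Km and Mg²⁺ in HEPES buffer, pH 7.5. Phosphorylated and unphosphorylated peptide were separated by off-chip mobility shift, and the product ratio P/(P+S) gave percent inhibition.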

[2] = target: T2, Human PDGFRα, cytoplasmic domain (GST-PDGFRα) (Homo sapiens, UniProt P16234); assay: Human PDGFRα biochemical inhibition assay (off-chip Mobility Shift Assay)
T2 construct: made in house
T2 sequence (P16234 550-1089 T674I): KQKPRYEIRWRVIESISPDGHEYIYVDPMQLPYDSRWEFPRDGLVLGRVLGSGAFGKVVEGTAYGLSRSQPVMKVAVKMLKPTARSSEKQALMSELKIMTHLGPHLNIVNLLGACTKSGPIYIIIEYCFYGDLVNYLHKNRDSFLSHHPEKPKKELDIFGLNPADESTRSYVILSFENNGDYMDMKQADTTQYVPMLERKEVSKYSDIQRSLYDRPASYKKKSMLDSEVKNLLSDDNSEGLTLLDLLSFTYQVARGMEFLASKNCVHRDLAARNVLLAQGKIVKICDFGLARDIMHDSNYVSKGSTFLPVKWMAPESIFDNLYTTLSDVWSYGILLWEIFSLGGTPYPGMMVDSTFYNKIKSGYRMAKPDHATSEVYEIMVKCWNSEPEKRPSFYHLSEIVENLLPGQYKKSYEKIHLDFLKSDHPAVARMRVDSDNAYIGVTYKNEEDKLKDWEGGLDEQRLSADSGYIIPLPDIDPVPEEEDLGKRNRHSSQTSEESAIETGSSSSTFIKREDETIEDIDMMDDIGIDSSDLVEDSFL

T1 sequence (P09619 with tags, fused parts or gaps): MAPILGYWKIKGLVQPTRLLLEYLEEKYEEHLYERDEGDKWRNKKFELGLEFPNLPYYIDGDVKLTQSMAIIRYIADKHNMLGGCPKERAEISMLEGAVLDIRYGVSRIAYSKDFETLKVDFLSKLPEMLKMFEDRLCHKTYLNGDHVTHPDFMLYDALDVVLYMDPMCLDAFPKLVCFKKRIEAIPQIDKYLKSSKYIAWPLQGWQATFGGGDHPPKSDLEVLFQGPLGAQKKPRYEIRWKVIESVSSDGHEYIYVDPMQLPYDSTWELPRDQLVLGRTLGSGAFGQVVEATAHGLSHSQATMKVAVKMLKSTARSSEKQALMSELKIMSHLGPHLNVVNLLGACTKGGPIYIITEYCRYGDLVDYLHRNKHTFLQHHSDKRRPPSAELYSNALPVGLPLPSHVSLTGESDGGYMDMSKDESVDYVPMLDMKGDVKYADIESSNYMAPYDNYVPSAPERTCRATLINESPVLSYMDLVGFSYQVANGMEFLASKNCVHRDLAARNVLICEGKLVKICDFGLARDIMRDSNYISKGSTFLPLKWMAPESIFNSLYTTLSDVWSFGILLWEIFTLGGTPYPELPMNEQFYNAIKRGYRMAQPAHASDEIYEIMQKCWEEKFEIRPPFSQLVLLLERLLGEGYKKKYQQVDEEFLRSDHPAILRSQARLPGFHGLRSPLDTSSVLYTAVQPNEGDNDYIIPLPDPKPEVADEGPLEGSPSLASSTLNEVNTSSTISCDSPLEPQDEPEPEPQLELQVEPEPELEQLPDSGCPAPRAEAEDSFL

Row | Compound | IC50 [1] [µM] | IC50 [2] [µM]
1 | C[C@H](Nc1cnc2cnn(C)c2n1)c1cccc(NC(=O)c2cncc(C(F)F)c2)c1 [Compound 103, (S)-5-(difluoromethyl)-N-(3-(1-((1-methyl-1H-pyrazolo[3,4-b]pyrazin-6-yl)amino)ethyl)phenyl)nicotinamide] | < 0.3 | < 0.3
2 | CCn1cc2ncc(N[C@@H](C)c3cccc(NC(=O)Cc4ccccn4)c3)nc2n1 [Compound 645, (S)-N-(3-(1-((2-ethyl-2H-pyrazolo[3,4-b]pyrazin-6-yl)amino)ethyl)phenyl)-2-(pyridin-2-yl)acetamide] | ≥ 1 | 0.3 to 1
3 | CCn1cc2ncc(N[C@@H](C)c3cc(NC(=O)Cc4ccc(C)nc4)ccc3C)nc2n1 [Compound 664, (S)-N-(3-(1-((2-ethyl-2H-pyrazolo[3,4-b]pyrazin-6-yl)amino)ethyl)-4-methylphenyl)-2-(6-methylpyridin-3-yl) acetamide] | ≥ 1 | < 0.3
4 | Cc1n[nH]c2ncc(N[C@@H](C)c3cccc(NC(=O)c4cc(C(C)C)on4)c3)nc12 [Compound 542, (S)-5-isopropyl-N-(3-(1-((3-methyl-1H-pyrazolo[3,4-b]pyrazin-5-yl)amino)ethyl)phenyl)isoxazole-3-carboxamide] | < 0.3 | < 0.3
5 | Cc1ncc(C(=O)Nc2cccc([C@H](C)Nc3cnc4cnn(C)c4n3)c2)s1 [Compound 138, (S)-2-methyl-N-(3-(1-((1-methyl-1H-pyrazolo[3,4-b]pyrazin-6-yl)amino)ethyl)phenyl)thiazole-5-carboxamide] | < 0.3 | < 0.3
6 | CCn1ncc2ncc(N[C@@H](C)c3cccc(NC(=O)c4cncc(C)c4)c3)nc21 [Compound 176, (S)-N-(3-(1-((1-ethyl-1H-pyrazolo[3,4-b]pyrazin-6-yl)amino)ethyl)phenyl)-5-methylnicotinamide] | < 0.3 | < 0.3
7 | CCn1cc2ncc(N[C@@H](C)c3cc(NC(=O)Cc4cc(C)c(F)cn4)ccc3C)nc2n1 [Compound 687, (S)-N-(3-(1-((2-ethyl-2H-pyrazolo[3,4-b]pyrazin-6-yl)amino)ethyl)-4-methylphenyl)-2-(5-fluoro-4-methylpyridin-2-yl)acetamide] | < 0.3 | < 0.3
8 | CCn1cc2ncc(N[C@@H](C)c3cc(NC(=O)c4ccc(C(F)(F)F)nc4)c(F)cc3F)nc2n1 [Compound 492, (S)-N-(5-(1-((2-ethyl-2H-pyrazolo[3,4-b]pyrazin-6-yl)amino)ethyl)-2,4-difluorophenyl)-6-(trifluoromethyl)nicotinamide] | 0.3 to 1 | < 0.3
9 | CCn1cc2ncc(N[C@@H](C)c3cccc(NC(=O)c4ccc(N5CCCC5)c(Cl)c4)c3)nc2n1 [Compound 389, (S)-3-chloro-N-(3-(1-((2-ethyl-2H-pyrazolo[3,4-b]pyrazin-6-yl)amino)ethyl)phenyl)-4-(pyrrolidin-1-yl)benzamide] | < 0.3 | < 0.3
10 | Cc1cc(C(=O)Nc2ccc(F)c([C@H](C)Nc3cnc4cnn(C)c4n3)c2)ccc1CN1CCN(C)CC1 [Compound 228, (S)-N-(4-fluoro-3-(1-((1-methyl-1H-pyrazolo[3,4-b]pyrazin-6-yl)amino)ethyl)phenyl)-3-methyl-4-((4-methylpiperazin-1-yl)methyl)benzamide] | < 0.3 | < 0.3
11 | Cc1cncc(C(=O)Nc2cccc([C@H](C)Nc3cncc4nn(C)cc34)c2)c1 [Compound 747, (S)-5-methyl-N-(3-(1-((2-methyl-2H-pyrazolo[3,4-c]pyridin-4-yl)amino)ethyl)phenyl)nicotinamide] | ≥ 1 | ≥ 1
12 | CCn1cc2ncc(N[C@@H](C)c3cccc(NC(=O)c4cnc(C(F)F)c(C)c4)c3)nc2n1 [Compound 353] | < 0.3 | < 0.3
13 | C[C@H](Nc1cnc2cn[nH]c2n1)c1cccc(NC(=O)c2cncc(C(C)(C)O)c2)c1 [Compound 95, (S)-N-(3-(1-((1H-pyrazolo[3,4-6]pyrazin-6-yl)amino)ethyl)phenyl)-5-(2-hydroxypropan-2-yl)nicotinamide] | < 0.3 | < 0.3
14 | CCn1cc2ncc(N[C@@H](C)c3cccc(NC(=O)c4ccc(C(=O)N5CC[C@@H](N)C5)c(C)c4)c3)nc2n1 [Compound 465, 4-((R)-3-aminopyrrolidine-1-carbonyl)-N-(3-((S)-1-((2-ethyl-2H-pyrazolo[3,4-b]pyrazin-6-yl)amino)ethyl)phenyl)-3-methylbenzamide] | ≥ 1 | < 0.3
15 | CCn1cc2ncc(N[C@@H](C)c3cc(NC(=O)Cc4ccc(C(F)(F)F)cn4)ccc3C)nc2n1 [Compound 661, (S)-N-(3-(1-((2-ethyl-2H-pyrazolo[3,4-b]pyrazin-6-yl)amino)ethyl)-4-methylphenyl)-2-(5-(trifluoromethyl)pyridin-2-yl)acetamide] | 0.3 to 1 | < 0.3
16 | CCOc1cncc(C(=O)Nc2cccc([C@H](C)Nc3cnc4cnn(C)c4n3)c2)c1 [Compound 242, (S)-5-ethoxy-N-(3-(1-((1-methyl-1H-pyrazolo[3,4-b]pyrazin-6-yl)amino)ethyl)phenyl)nicotinamide] | < 0.3 | < 0.3
17 | C[C@H](Nc1cnc2cn(CC3CCC3)nc2n1)c1cc(NC(=O)c2cnc(C(F)(F)F)s2)ccc1F [Compound 390, (S)-N-(3-(1-((2-(cyclobutylmethyl)-2H-pyrazolo[3,4-b]pyrazin-6-yl)amino)ethyl)-4-fluorophenyl)-2-(trifluoromethyl)thiazole-5-carboxamide] | < 0.3 | < 0.3
18 | CCn1cc2ncc(N[C@@H](C)c3cc(NC(=O)c4ccc(CN5CCN(C)CC5)c(C(F)(F)F)c4)ccc3F)nc2n1 [Compound 444, (S)-N-(3-(1-((2-ethyl-2H-pyrazolo[3,4-b]pyrazin-6-yl)amino)ethyl)-4-fluorophenyl)-4-((4-methylpiperazin-1-yl)methyl)-3-(trifluoromethyl) benzamide] | < 0.3 | < 0.3
19 | CCn1cc2ncc(N[C@@H](C)c3cccc(NC(=O)Cc4cccnc4)c3)nc2n1 [Compound 624, (S)-N-(3-(1-((2-ethyl-2H-pyrazolo[3,4-b]pyrazin-6-yl)amino)ethyl)phenyl)-2-(pyridin-3-yl)acetamide] | ≥ 1 | 0.3 to 1
20 | CCn1cc2ncc(N[C@@H](C)c3cccc(NC(=O)c4ccc(CN5CCOCC5)c(C)c4)c3)nc2n1 [Compound 403, (S)-N-(3-(1-((2-ethyl-2H-pyrazolo[3,4-b]pyrazin-6-yl)amino)ethyl)phenyl)-3-methyl-4-(morpholinomethyl) benzamide] | < 0.3 | < 0.3
21 | CCn1cc2ncc(N[C@@H](C)c3cc(NC(=O)c4cnc(C#N)c(C)c4)ccc3F)nc2n1 [Compound 306, (S)-6-cyano-N-(3-(1-((2-ethyl-2H-pyrazolo[3,4-b]pyrazin-6-yl)amino)ethyl)-4-fluorophenyl)-5-methylnicotinamide] | < 0.3 | < 0.3
22 | Cc1ncc(C(=O)Nc2cccc([C@H](C)Nc3cnc4cnn(C)c4n3)c2)cc1C(F)(F)F [Compound 124, (S)-6-methyl-N-(3-(1-((1-methyl-1H-pyrazolo[3,4-b]pyrazin-6-yl)amino)ethyl)phenyl)-5-(trifluoromethyl) nicotinamide] | < 0.3 | < 0.3
